Test results: US20100137344A1, “INDUCTION OF ANALGESIA IN NEUROPATHIC PAIN” (University Court of the University of Edinburgh, priority 2006, published 2010)
Read-outs that look alike come from different tables or passages of the source.

Tests used:
[1] = tested on: rats with chronic constriction injury (CCI) to sciatic nerve; assay: Intrathecal application in CCI rats, behavioural reflex testing (PWL, PWT); assay type: in vivo, rat; conditions: for duration of significant reversal of sensitised responses: (−)-menthol 200 nmol; for EC50: Rattus norvegicus, central
Procedure: Pain models were generated under halothane anaesthesia (Zeneca, Cheshire, UK). For the chronic constriction injury (CCI) model of neuropathic pain, four ligatures were tied loosely to constrict the sciatic nerve at mid-thigh level (as described previously^[39]). An inflammatory pain model was generated by injecting 100 μl of Complete Freund's Adjuvant (CFA, Sigma-Aldrich Ltd) into the ventral surface of the right hindpaw^[39]. A model of peripheral demyelination-induced pain was produced by focal application of lysolecithin to the sciatic nerve^[40]. Peak behavioural sensitisation was observed post-surgically between days 10-16 for CCI, 1-3 for CFA, and 7-14 for lysolecithin, when pharmacological and electrophysiological experiments and tissue removal were conducted.
Thermal sensitivity was assessed by measuring paw withdrawal latency (PWL, s) in response to a noxious thermal stimulus (Hargreaves' thermal stimulator, Linton Instrumentation, Diss, UK) directed to the hindpaw mid-plantar glabrous surface. Mechanical sensitivity was recorded as the paw withdrawal threshold (PWT, mN/mm^2) to calibrated von Frey filaments (Stoelting, Ill., US), as previously described^[39]. Sensitivity to noxious cold was assessed by placing animals in a waterbath with an aluminium floor containing 1 cm deep 4° C. water and counting the time the paw was held suspended over a 20 s period.
The following drugs were applied intrathecally in a 50 μl volume of saline-based vehicle at 37° C.: icilin (2.5-200 μM in saline with 0.2% dimethylformamide, DMF), LY 341495 (100 μM in saline), UBP 1112 (200 μM in saline), 2R,4R-APDC ((2R, 4R)-4-aminopyrrolidine-2,4-dicarboxylate), 300 μM in saline), ACPT-III ((1R,3R,4S)-1-aminocyclopentane-1,3,4-tricarboxylic acid), 3 mM in saline), AP-4, ((L-(1)-2-amino-4-phosphonobutyric acid), 3 mM in saline), naloxone (0.5 mM in saline), NMDA (75 μM in saline) and ACPC (1-aminocyclopropanecarboxylic acid, 15 μM in saline) (Tocris Cookson, Bristol, UK), (−)-menthol (1R,2S,5R-(−)-menthol, 4 mM in saline), cinnamaldehyde (1.5 mM in saline) and Ruthenium Red (5 μM in saline) (Sigma-Aldrich Co. Ltd, UK) and allicin (0.5 mM in saline with 0.5% DMF) and diallyl disulphide (DADS, 1 mM in saline with 0.5% DMF) (LKT Laboratories Inc., St Paul, Minn., USA). Drugs were injected into the L5/6 intrathecal space under brief halothane anaesthesia, using a 25-gauge needle microsyringe (BD Biosciences, Oxford, UK), as described previously^[39] in animals that were at peak levels of behavioural sensitisation. Behavioural reflex testing commenced 15 min following injection to allow recovery from anaesthesia^[40,41,42] and continued every 5 min thereafter until readings returned to baseline levels (n=6 in each case). We, and others^[40,41,42] find complete recovery from anaesthetic by 15 minutes. All appropriate controls were carried out to eliminate the possibility of effects due to vehicle or to injection procedure.
The TRPM8 channel activators, icilin and (−)-menthol were tested in CCI and naïve animals. The effects of icilin were additionally assessed in animals with CFA-induced inflammation or with lysolecithin-induced demyelination. Icilin was also co-administered with the μ-opioid receptor antagonist naloxone, the Group II metabotropic glutamate receptor (mGluR) antagonist, LY 341495, or the Group III mGluR antagonist, UBP 1112. The effects of these antagonists alone as well as effects of the Group II mGluR agonist, 2R,4R-APDC and the Group III mGluR agonists, ACPT-III and AP-4, were assessed in CCI animals. The TRPA1 channel activator, cinnamaldehyde, alone and with icilin, was tested in CCI animals and in naïve animals. Further TRPA1 channel activators, allicin and diallyl disulphide were assessed in naïve animals. Both icilin and cinnamaldehyde effects in CCI animals were also investigated in the additional presence of Ruthenium Red.

[2] = tested on: SNL model of neuropathic pain; assay: SNL spinal nerve ligation model, Hargreaves' test, topical icilin; assay type: in vivo; conditions: icilin 200 μM topical
Procedure: The SNL model of neuropathic pain was set up according to Kim and Chung 1992 (Pain 50: 355-363). The Hargreaves' test for thermal hyperalgesia was carried out as described above and icilin (200 μM) was applied topically to the ipsilateral (⋄) and contralateral (▪) paw. Values are shown as means±SEM. † Indicates statistically significant reversal of sensitisation ipsilateral to nerve injury (see FIG. 1). No significant drug effects were seen on reflex withdrawal responses of the contralateral limb.

[3] = (−)-menthol 200 nmol intrathecal alone, 20-30 minutes post-injection
[4] = intrathecal, non-linear curve-fitting

SMILES	mean percentage reversal of sensitisation, PWL [1, 3]	mean percentage reversal of sensitisation, PWT [1, 3]	duration of significant reversal of sensitised responses ([1]; intrathecal, icilin 10 nmol)	analgesia, thermal hyperalgesia (Hargreaves' test) [2]	Ipsilateral PWL ([1]; CCI, NMDA/ACPC in the additional presence of icilin 10 nmol)	Ipsilateral PWT ([1]; CCI, NMDA/ACPC with co-injection of icilin 10 nmol)	Mean % reversal of mechanical sensitisation (after 15-30 mins) ([1]; CCI, icilin 10 nmol, i.t.)	Mean % reversal of thermal sensitisation (after 15-30 mins) ([1]; CCI, icilin 10 nmol, i.t.)	PWL (s) difference from control (+ icilin) ([1]; CCI, icilin 10 nmol, i.t.)	PWT (mN/mm^2) difference from control (+ icilin) ([1]; CCI, icilin 10 nmol, i.t.)	EC50 ([1]; intrathecal, non-linear curve-fitting, read-out: EC50 (dose for 50% of maximal effect), PWL)	EC50 ([1]; intrathecal, non-linear curve-fitting, read-out: EC50 (dose for 50% of maximal effect), PWT)	maximal effect, reversal of sensitisation, PWL [1, 4]	maximal effect, reversal of sensitisation, PWT [1, 4]	dose by which analgesic effects were statistically significant ([1]; intrathecal, thermal and mechanical tests, nerve injury side)
CC(C)[C@@H]1CC[C@@H](C)C[C@H]1O [(−)-menthol, 1R,2S,5R-(−)-menthol]	86.1±8.1%	80.6±4.2%	35 to 40 min												
O=C1NC(c2cccc([N+](=O)[O-])c2)=CCN1c1ccccc1O [icilin, 1-(2′-hydroxyphenyl)-4-(3″-nitrophenyl)-1,2,3,6-tetrahydropyrimidin-2-one]			up to 55 min	causes analgesia	14.9 ± 0.6 s	3482.7±174.3 mN/mm^2	76.8 ± 5.3%	84.7 ± 6.0%	0.9 ± 1.2 s	775.4 ± 467.7 mN/mm^2	170 ± 20 pM	310 ± 20 pM	91.6±9.9%	82.6±6.8%	0.125 nmol
